Reference: US10131652B2, “Pyrimidinyloxy benzene derivatives as herbicides” (E. I. DU PONT DE NEMOURS AND COMPANY, priority 2014, dated 2018)
Where two headings read alike, the source gives them in different places.

Legend:
Assay type in all cases: in vivo
[1] = system: ducksalad (Heteranthera limosa); test: Test C flooded paddy test plant response; conditions: Heteranthera limosa; Flood, 250 g ai/ha; scale of 0 to 100 where 0 is no effect and 100 is complete control; 13 to 15 days; read-out: Ducksalad plant response rating
Procedure, shortened: (§1)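 Scored visually on a 0–100 scale (100 = complete control) against untreated plants 13 to 15 days after treatment in the greenhouse. Compounds went into paddy water of pots flooded to 3 cm, holding 2-leaf-stage plants.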

[2] = system: small-flower umbrella sedge (Cyperus difformis); test: Test C flooded paddy test plant response; conditions: Cyperus difformis; Flood, 250 g ai/ha; scale of 0 to 100 where 0 is no effect and 100 is complete control; 13 to 15 days; read-out: Sedge, Umbrella plant response rating
Procedure, shortened: as §1

rice (Oryza sativa) = test: Test C flooded paddy test plant response; conditions: Oryza sativa; Flood, 250 g ai/ha; scale of 0 to 100 where 0 is no effect and 100 is complete control; 13 to 15 days; read-out: Rice plant response rating
Procedure, shortened: as §1

[3] = system: barnyardgrass (Echinochloa crus-galli); test: Test C flooded paddy test plant response; conditions: Echinochloa crus-galli; Flood, 250 g ai/ha; scale of 0 to 100 where 0 is no effect and 100 is complete control; 13 to 15 days; read-out: Barnyardgrass plant response rating
Procedure, shortened: as §1

[4] = system: oilseed rape (Brassica napus); test: Test D pre-/postemergence plant response; conditions: Brassica napus; for plant injury at 16 g/ha: 16 g ai/ha; for plant injury at 31 g/ha: 31 g ai/ha; for plant injury at 62 g/ha: 62 g ai/ha; for plant injury at 125 g/ha: 125 g ai/ha
Procedure, shortened: (§2)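 Greenhouse herbicidal response, both pre- and postemergence applications, with solvent/surfactant formulation. Postemergence plants were at 1- to 4-leaf stage. Visual scores 0–100 relative to controls, taken 13 to 15 days later.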

[5] = system: johnsongrass (Sorghum halepense); test: Test D pre-/postemergence plant response; conditions: Sorghum halepense; for pest or weed control at 16 g/ha: 16 g ai/ha; for pest or weed control at 31 g/ha: 31 g ai/ha; for pest or weed control at 62 g/ha: 62 g ai/ha; for pest or weed control at 125 g/ha: 125 g ai/ha
Procedure, shortened: as §2

[6] = system: pigweed (Amaranthus retroflexus); test: Test D pre-/postemergence plant response; conditions: Amaranthus retroflexus; for pest or weed control at 16 g/ha: 16 g ai/ha; for pest or weed control at 31 g/ha: 31 g ai/ha; for pest or weed control at 62 g/ha: 62 g ai/ha; for pest or weed control at 125 g/ha: 125 g ai/ha
Procedure, shortened: as §2

[7] = system: blackgrass (Alopecurus myosuroides); test: Test D pre-/postemergence plant response; conditions: Alopecurus myosuroides; for pest or weed control at 16 g/ha: 16 g ai/ha; for pest or weed control at 31 g/ha: 31 g ai/ha; for pest or weed control at 62 g/ha: 62 g ai/ha; for pest or weed control at 125 g/ha: 125 g ai/ha
Procedure, shortened: as §2

[8] = system: velvetleaf (Abutilon theophrasti); test: Test D pre-/postemergence plant response; conditions: Abutilon theophrasti; for pest or weed control at 16 g/ha: 16 g ai/ha; for pest or weed control at 31 g/ha: 31 g ai/ha; for pest or weed control at 62 g/ha: 62 g ai/ha; for pest or weed control at 125 g/ha: 125 g ai/ha
Procedure, shortened: as §2

[9] = system: giant foxtail (Setaria faberii); test: Test D pre-/postemergence plant response; conditions: Setaria faberi; for pest or weed control at 16 g/ha: 16 g ai/ha; for pest or weed control at 31 g/ha: 31 g ai/ha; for pest or weed control at 62 g/ha: 62 g ai/ha; for pest or weed control at 125 g/ha: 125 g ai/ha
Procedure, shortened: as §2

[10] = system: barnyardgrass (Echinochloa crus-galli); test: Test D pre-/postemergence plant response; conditions: Echinochloa crus-galli; for pest or weed control at 16 g/ha: 16 g ai/ha; for pest or weed control at 31 g/ha: 31 g ai/ha; for pest or weed control at 62 g/ha: 62 g ai/ha; for pest or weed control at 125 g/ha: 125 g ai/ha
Procedure, shortened: as §2

[11] = pre-emergence, Preemergence, scale 0 to 100 (0 no effect, 100 complete control), read-out: Plant response rating, Oilseed Rape
[12] = post-emergence, Postemergence, scale 0 to 100, 0 no effect, 100 complete control, read-out: Plant response rating, Johnsongrass
[13] = pre-emergence, Preemergence, scale 0 to 100 (0 no effect, 100 complete control), read-out: Plant response rating, Johnsongrass
[14] = pre-emergence, Preemergence, scale 0 to 100 (0 no effect, 100 complete control), read-out: Plant response rating, Pigweed
[15] = post-emergence, Postemergence, scale 0 to 100, 0 no effect, 100 complete control, read-out: Plant response rating, Blackgrass
[16] = pre-emergence, Preemergence, scale 0 to 100 (0 no effect, 100 complete control), read-out: Plant response rating, Blackgrass
[17] = pre-emergence, Preemergence, scale 0 to 100 (0 no effect, 100 complete control), read-out: Plant response rating, Velvetleaf
[18] = post-emergence, Postemergence, scale 0 to 100, 0 no effect, 100 complete control, read-out: Plant response rating, Foxtail, Giant
[19] = pre-emergence, Preemergence, scale 0 to 100 (0 no effect, 100 complete control), read-out: Plant response rating, Foxtail, Giant
[20] = post-emergence, Postemergence, scale 0 to 100, 0 no effect, 100 complete control, read-out: Plant response rating, Barnyardgrass
[21] = pre-emergence, Preemergence, scale 0 to 100 (0 no effect, 100 complete control), read-out: Plant response rating, Barnyardgrass

FC(F)(F)c1cc(-c2ccccc2Oc2ncc(Cl)cn2)no1 [Compound 200, 5-chloro-2-[2-[5-(trifluoromethyl)-3-isoxazolyl]phenoxy]pyrimidine]
95%: pest or weed control at 16 g/ha [9, 19] | pest or weed control at 31 g/ha [10, 21]
60%: pest or weed control at 31 g/ha [5, 13] | pest or weed control at 31 g/ha ([8]; post-emergence, Postemergence, scale 0 to 100 (0 no effect, 100 complete control), read-out: Velvetleaf plant response rating)
70%: plant injury at 16 g/ha ([4]; post-emergence, Postemergence, read-out: Plant response rating (scale 0 to 100), Oilseed Rape) | pest or weed control at 62 g/ha ([8]; post-emergence, Postemergence, scale 0 to 100, 0 no effect, 100 complete control, read-out: Velvetleaf plant response rating)
30%: pest or weed control at 16 g/ha ([7]; post-emergence, Postemergence, read-out: Plant response rating (scale 0 to 100), Blackgrass) | pest or weed control at 31 g/ha ([7]; post-emergence, Postemergence, scale 0 to 100 (0 no effect, 100 complete control), read-out: Blackgrass plant response rating) | pest or weed control at 16 g/ha ([8]; post-emergence, Postemergence, read-out: Plant response rating (scale 0 to 100), Velvetleaf)
25%: pest or weed control at 16 g/ha [5, 13]
15%: pest or weed control at 16 g/ha ([5]; post-emergence, Postemergence, read-out: Plant response rating (scale 0 to 100), Johnsongrass) | pest or weed control at 125 g/ha [9, 18] | pest or weed control at 125 g/ha [10, 20]
100%: pest or weed control at 250 g/ha [1] | pest or weed control at 250 g/ha [2] | plant injury at 62 g/ha ([4]; post-emergence, Postemergence, scale 0 to 100, 0 no effect, 100 complete control, read-out: Oilseed Rape plant response rating) | plant injury at 125 g/ha ([4]; post-emergence, Postemergence, scale 0 to 100, 0 no effect, 100 complete control, read-out: Plant response rating, Oilseed Rape) | plant injury at 125 g/ha ([4]; pre-emergence, Preemergence, read-out: Plant response rating (scale 0 to 100), Oilseed Rape) | plant injury at 31 g/ha [4, 11] | plant injury at 62 g/ha [4, 11] | pest or weed control at 125 g/ha ([5]; pre-emergence, Preemergence, read-out: Plant response rating (scale 0 to 100), Johnsongrass) | pest or weed control at 125 g/ha ([6]; pre-emergence, Preemergence, read-out: Plant response rating (scale 0 to 100), Pigweed) | pest or weed control at 16 g/ha [6, 14] | pest or weed control at 31 g/ha [6, 14] | pest or weed control at 62 g/ha [6, 14] | pest or weed control at 125 g/ha ([8]; pre-emergence, Preemergence, read-out: Plant response rating (scale 0 to 100), Velvetleaf) | pest or weed control at 16 g/ha [8, 17] | pest or weed control at 31 g/ha [8, 17] | pest or weed control at 62 g/ha [8, 17] | pest or weed control at 125 g/ha ([9]; pre-emergence, Preemergence, read-out: Plant response rating (scale 0 to 100), Foxtail, Giant) | pest or weed control at 31 g/ha [9, 19] | pest or weed control at 62 g/ha [9, 19] | pest or weed control at 125 g/ha ([10]; pre-emergence, Preemergence, read-out: Plant response rating (scale 0 to 100), Barnyardgrass) | pest or weed control at 62 g/ha [10, 21]
98%: pest or weed control at 125 g/ha ([6]; post-emergence, Postemergence, scale 0 to 100, 0 no effect, 100 complete control, read-out: Plant response rating, Pigweed)
40%: pest or weed control at 125 g/ha [5, 12] | pest or weed control at 62 g/ha [7, 15]
90%: pest or weed control at 250 g/ha [3] | pest or weed control at 16 g/ha ([6]; post-emergence, Postemergence, read-out: Plant response rating (scale 0 to 100), Pigweed) | pest or weed control at 125 g/ha [7, 15] | pest or weed control at 125 g/ha ([7]; pre-emergence, Preemergence, read-out: Plant response rating (scale 0 to 100), Blackgrass) | pest or weed control at 31 g/ha [7, 16] | pest or weed control at 62 g/ha [7, 16]
45%: pest or weed control at 62 g/ha [5, 12]
35%: plant injury at 250 g/ha (rice (Oryza sativa)) | pest or weed control at 16 g/ha [10, 21]
75%: pest or weed control at 125 g/ha ([8]; post-emergence, Postemergence, scale 0 to 100, 0 no effect, 100 complete control, read-out: Plant response rating, Velvetleaf)
85%: plant injury at 31 g/ha ([4]; post-emergence, Postemergence, scale 0 to 100 (0 no effect, 100 complete control), read-out: Oilseed Rape plant response rating) | plant injury at 16 g/ha [4, 11] | pest or weed control at 62 g/ha [5, 13] | pest or weed control at 31 g/ha ([6]; post-emergence, Postemergence, scale 0 to 100 (0 no effect, 100 complete control), read-out: Pigweed plant response rating) | pest or weed control at 62 g/ha ([6]; post-emergence, Postemergence, scale 0 to 100, 0 no effect, 100 complete control, read-out: Pigweed plant response rating) | pest or weed control at 16 g/ha [7, 16]
5%: pest or weed control at 16 g/ha ([9]; post-emergence, Postemergence, read-out: Plant response rating (scale 0 to 100), Foxtail, Giant) | pest or weed control at 16 g/ha ([10]; post-emergence, Postemergence, read-out: Plant response rating (scale 0 to 100), Barnyardgrass)
10%: pest or weed control at 62 g/ha [9, 18] | pest or weed control at 31 g/ha ([10]; post-emergence, Postemergence, scale 0 to 100 (0 no effect, 100 complete control), read-out: Barnyardgrass plant response rating) | pest or weed control at 62 g/ha [10, 20]
20%: pest or weed control at 31 g/ha ([5]; post-emergence, Postemergence, scale 0 to 100 (0 no effect, 100 complete control), read-out: Johnsongrass plant response rating) | pest or weed control at 31 g/ha ([9]; post-emergence, Postemergence, scale 0 to 100 (0 no effect, 100 complete control), read-out: Foxtail, Giant plant response rating)
